# From patent publication US20220110320A1, “ANTIMICROBIAL THIOURONIUM COPOLYMERS AND METHODS OF MAKING AND USING THE SAME” (priority 2020, published 2022)
# Assay: 1H-NMR stability (hydrolysis) of VBT monomer
# Type: physicochemical
# Conditions: 3 weeks
# Method: ^1H-NMR Studies. The VBT monomer (5 mg/mL) stability in D2O (with 0.5 μL DMSO as standard) and 0.5 M sodium acetate was analyzed using ^1H-NMR (Avance-600 MHz, Bruker). The VBT peak position and integration were monitored vs. time.
# The monomer was recrystallized before use to remove any deprotected thiols. The PVBT polymer was prepared using radical polymerization in TFE and was characterized using NMR spectroscopy. Because the thiouronium group is usually employed as a precursor to thiols, via base-induced hydrolysis, the stability of the VBT monomer under neutral and mildly basic conditions was assessed by recording ^1H-NMR spectra of VBT in D20 and in 0.5 M NaAc (pH≈9.2) for 3 weeks. […] In fact, hydrolysis is typically carried out at much higher pH.
structure (smiles),measurement,setting,value
C=Cc1ccc(CSC(=N)N)cc1.Cl [VBT],Hydrolysis of monomer by 1H-NMR,in 0.5 M NaAc (pH≈9.2),no signs of hydrolysis
same,Hydrolysis of monomer by 1H-NMR,in D2O,no signs of hydrolysis
